Test results taken from the NIST ThermoML archive (doi:10.1021/je1003065).
Numbers after ± are expanded uncertainties.

Test: mn = molality of the nth substance listed, in mol/kg
Conditions: Liquid, Vibrating tube method

[Br-].[Li+] [lithium bromide] + CCO
Conditions | mass density [kg/m3]
373.16 K, 5125 kPa, m1 = 0.5972 | 762.2 ± 1.5
373.16 K, 9909 kPa, m1 = 1.462 | 822.87 ± 1.6
373.16 K, 29954 kPa, m1 = 0.2335 | 764.93 ± 1.6
373.16 K, 40172 kPa, m1 = 0.5972 | 798.56 ± 1.6
373.16 K, 49979 kPa, m1 = 0.5972 | 807.22 ± 1.7
373.16 K, 79993 kPa, m1 = 1.462 | 881.25 ± 1.8
373.16 K, 89924 kPa, m1 = 1.462 | 887.37 ± 1.9
373.16 K, 99892 kPa, m1 = 2.272 | 936.43 ± 1.9
373.17 K, 1353 kPa, m1 = 2.272 | 860.5 ± 1.7
373.17 K, 20097 kPa, m1 = 1.462 | 833.45 ± 1.7
373.17 K, 29993 kPa, m1 = 1.462 | 842.95 ± 1.7
373.17 K, 49993 kPa, m1 = 1.462 | 860.02 ± 1.8
373.17 K, 50023 kPa, m1 = 0.2335 | 783.79 ± 1.6
373.17 K, 59801 kPa, m1 = 0.5972 | 815.22 ± 1.7
373.17 K, 99791 kPa, m1 = 1.462 | 893.1 ± 1.9
373.18 K, 4985 kPa, m1 = 2.272 | 864.78 ± 1.7
373.18 K, 9782 kPa, m1 = 2.272 | 870.51 ± 1.8
373.19 K, 19637 kPa, m1 = 2.272 | 879.78 ± 1.8
373.19 K, 29927 kPa, m1 = 2.272 | 888.82 ± 1.8
373.19 K, 39864 kPa, m1 = 2.272 | 896.99 ± 1.8
373.19 K, 40176 kPa, m1 = 1.462 | 851.97 ± 1.7
398.11 K, 79836 kPa, m1 = 2.272 | 910.54 ± 1.9
398.12 K, 10085 kPa, m1 = 1.462 | 801.33 ± 1.6
398.12 K, 39724 kPa, m1 = 2.272 | 879.8 ± 1.8
398.12 K, 49958 kPa, m1 = 2.272 | 888.51 ± 1.8
398.12 K, 59977 kPa, m1 = 2.272 | 896.37 ± 1.8
398.12 K, 69928 kPa, m1 = 2.272 | 903.66 ± 1.9
398.13 K, 5252 kPa, m1 = 1.462 | 795.21 ± 1.6
398.13 K, 29993 kPa, m1 = 2.272 | 870.74 ± 1.8
398.13 K, 39727 kPa, m1 = 3.368 | 934.47 ± 1.9
398.14 K, 9704 kPa, m1 = 2.272 | 848.87 ± 1.7
398.14 K, 9986 kPa, m1 = 2.833 | 879.45 ± 1.8
398.14 K, 19987 kPa, m1 = 3.368 | 916.46 ± 1.8
398.14 K, 20117 kPa, m1 = 2.272 | 860.65 ± 1.7
398.14 K, 29928 kPa, m1 = 0.2335 | 744.1 ± 1.5
398.14 K, 29993 kPa, m1 = 3.368 | 926 ± 1.9
398.14 K, 39959 kPa, m1 = 1.462 | 834.18 ± 1.7
398.14 K, 40001 kPa, m1 = 0.5972 | 779.67 ± 1.6
398.14 K, 49956 kPa, m1 = 2.833 | 917.53 ± 1.9
398.14 K, 89925 kPa, m1 = 2.833 | 945.26 ± 1.9
398.14 K, 99863 kPa, m1 = 0.5972 | 827.19 ± 1.9
398.15 K, 1326 kPa, m1 = 2.833 | 868.98 ± 1.7
398.15 K, 1425 kPa, m1 = 0.9499 | 756.04 ± 1.5
398.15 K, 2012 kPa, m1 = 3.368 | 896.84 ± 1.8
398.15 K, 2214 kPa, m1 = 1.462 | 790.21 ± 1.6
398.15 K, 2451 kPa, m1 = 0.2335 | 705.58 ± 1.4
398.15 K, 2804 kPa, m1 = 0.5972 | 733.32 ± 1.5
398.15 K, 5002 kPa, m1 = 2.833 | 873.54 ± 1.8
398.15 K, 5024 kPa, m1 = 0.2335 | 709.8 ± 1.4
398.15 K, 5025 kPa, m1 = 0.9499 | 761.36 ± 1.5
398.15 K, 9911 kPa, m1 = 3.368 | 905.89 ± 1.8
398.15 K, 9986 kPa, m1 = 0.9499 | 768.11 ± 1.6
398.15 K, 10023 kPa, m1 = 0.2335 | 717.61 ± 1.5
398.15 K, 19859 kPa, m1 = 1.462 | 812.89 ± 1.6
398.15 K, 19923 kPa, m1 = 0.9499 | 780.63 ± 1.6
398.15 K, 19925 kPa, m1 = 2.833 | 890.37 ± 1.8
398.15 K, 29784 kPa, m1 = 0.9499 | 791.83 ± 1.6
398.15 K, 29946 kPa, m1 = 1.462 | 823.95 ± 1.7
398.15 K, 29996 kPa, m1 = 0.5972 | 769.06 ± 1.6
398.15 K, 39926 kPa, m1 = 0.9499 | 802.25 ± 1.6
398.15 K, 39941 kPa, m1 = 0.2335 | 754.26 ± 1.6
398.15 K, 40021 kPa, m1 = 2.833 | 909.38 ± 1.8
398.15 K, 49925 kPa, m1 = 1.462 | 843.34 ± 1.7
398.15 K, 49926 kPa, m1 = 3.368 | 942.62 ± 1.9
398.15 K, 49931 kPa, m1 = 0.2335 | 764.05 ± 1.6
398.15 K, 49993 kPa, m1 = 0.5972 | 789.19 ± 1.7
398.15 K, 50024 kPa, m1 = 0.9499 | 811.67 ± 1.7
398.15 K, 59926 kPa, m1 = 0.9499 | 820.12 ± 1.7
398.15 K, 59926 kPa, m1 = 2.833 | 925.07 ± 1.9
398.15 K, 69784 kPa, m1 = 0.9499 | 827.92 ± 1.8
398.15 K, 69953 kPa, m1 = 0.2335 | 781.36 ± 1.7
398.15 K, 69979 kPa, m1 = 0.5972 | 805.77 ± 1.7
398.15 K, 79787 kPa, m1 = 0.5972 | 813.07 ± 1.8
398.15 K, 79935 kPa, m1 = 0.9499 | 835.45 ± 1.8
398.15 K, 80002 kPa, m1 = 2.833 | 938.86 ± 1.9
398.15 K, 89921 kPa, m1 = 0.2335 | 795.82 ± 1.8
398.15 K, 89936 kPa, m1 = 0.9499 | 842.54 ± 1.8
398.15 K, 89963 kPa, m1 = 2.272 | 917.33 ± 1.9
398.15 K, 89994 kPa, m1 = 0.5972 | 820.32 ± 1.8
398.15 K, 99021 kPa, m1 = 0.9499 | 848.81 ± 1.9
398.15 K, 99624 kPa, m1 = 0.2335 | 802.67 ± 1.9
398.15 K, 99816 kPa, m1 = 1.462 | 879.34 ± 1.9
398.15 K, 99985 kPa, m1 = 2.833 | 951.65 ± 1.9
398.15 K, 100000 kPa, m1 = 3.368 | 976.03 ± 2
398.16 K, 5023 kPa, m1 = 3.368 | 900.37 ± 1.8
398.16 K, 19941 kPa, m1 = 0.5972 | 757.12 ± 1.5
398.16 K, 19974 kPa, m1 = 0.2335 | 731.71 ± 1.5
398.16 K, 29947 kPa, m1 = 2.833 | 900.32 ± 1.8
398.16 K, 60031 kPa, m1 = 1.462 | 851.51 ± 1.8
398.16 K, 60122 kPa, m1 = 3.368 | 950.15 ± 1.9
398.16 K, 69784 kPa, m1 = 2.833 | 932.03 ± 1.9
398.16 K, 69947 kPa, m1 = 1.462 | 859.16 ± 1.8
398.16 K, 69957 kPa, m1 = 3.368 | 956.94 ± 1.9
398.16 K, 79919 kPa, m1 = 3.368 | 963.47 ± 1.9
398.16 K, 80014 kPa, m1 = 0.2335 | 788.79 ± 1.8
398.16 K, 89928 kPa, m1 = 1.462 | 872.71 ± 1.8
398.16 K, 89993 kPa, m1 = 3.368 | 969.83 ± 2
398.17 K, 5071 kPa, m1 = 0.5972 | 736.75 ± 1.5
398.17 K, 9730 kPa, m1 = 0.5972 | 743.51 ± 1.5
398.17 K, 59907 kPa, m1 = 0.5972 | 797.77 ± 1.7
398.17 K, 59978 kPa, m1 = 0.2335 | 773.47 ± 1.7
398.18 K, 1833 kPa, m1 = 2.272 | 839.1 ± 1.7
398.18 K, 80059 kPa, m1 = 1.462 | 866.49 ± 1.8
398.19 K, 99619 kPa, m1 = 2.272 | 923.71 ± 1.9
398.22 K, 4702 kPa, m1 = 2.272 | 842.75 ± 1.7
